Results taken from US20040132996A1, “Method for preparation of ceftiofur and salts thereof” (LUPIN LIMITED, priority 2002, published 2004).

Test: Storage stability of the product at 40° ± 2° C. for 90 days (drop in assay)
Type: physicochemical
Conditions: for Storage Stability: assay after storage: after 90 days at 40° ± 2° C.; for Storage Stability: assay at start: before storage at 40° ± 2° C.; for storage stability (statement in words): product obtained by the process of the invention

| Compound | Storage Stability (90 days at 40° ± 2° C.) | Storage Stability: assay after storage | Storage Stability: assay at start | storage stability (statement in words) |
| --- | --- | --- | --- | --- |
| CO/N=C(\C(=O)N[C@@H]1C(=O)N2C(C(=O)O)=C(CSC(=O)c3ccco3)CS[C@H]12)c1csc(N)n1 [ceftiofur (Ia)] | Stable for 90 days at 40° ± 2 °C with a | 92% | 97% | high storage stability |
| CO/N=C(\C(=O)N[C@@H]1C(=O)N2C(C(=O)[O-])=C(CSC(=O)c3ccco3)CS[C@H]12)c1csc(N)n1.[Na+] [ceftiofur sodium (Ib)] |  | 87% | 94% | high storage stability |
